Tested on: M. tuberculosis
Experiment: Extracellular activity against M. tuberculosis in cholesterol media (Alamar Blue reduction assay)
Format: cell-based, Mycobacterium tuberculosis
Conditions: Mycobacterium tuberculosis, 240 h, 7H12-Cholesterol media, 10 days; read-out: Cholesterol broth: alamar blue--EC50

Compound	EC50
Cn1ncnc1CC(=O)N1CC2CC1CC2c1nc(-c2ccc(Cl)cc2F)no1 (centres unmarked) [Compound 204, 1-(5-(3-(4-chloro-2-fluorophenyl)-1,2,4-oxadiazol-5-yl)-2-azabicyclo[2.2.1]heptan-2-yl)-2-(1-methyl-1H-1,2,4-triazol-5-yl)ethan-1-one]	740 nM
Cn1ncnc1CC(=O)N1CCC(c2nc(-c3ccc(F)c(C(F)(F)F)c3)no2)CC1 [Compound 181]	467 nM
Cn1ncnc1CC(=O)N1CCC(c2nc(-c3ccc(F)cc3F)no2)CC1 [Compound 180, 1-(4-(3-(2,4-difluorophenyl)-1,2,4-oxadiazol-5-yl)piperidin-1-yl)-2-(1-methyl-1H-1,2,4-triazol-5-yl)ethan-1-one]	480 nM
Cn1cnnc1CC(=O)N1CCC(n2nnc(-c3ccc(F)cc3)n2)CC1 [Compound 156, 1-(4-(5-(4-fluorophenyl)-2H-tetrazol-2-yl)piperidin-1-yl)-2-(4-methyl-4H-1,2,4-triazol-3-yl)ethan-1-one]	> 10000 nM
Cn1ncnc1CC(=O)N1CCC(c2noc(-c3ccc(Cl)c(Cl)c3)n2)CC1 [Compound 166, 1-(4-(5-(3,4-dichlorophenyl)-1,2,4-oxadiazol-3-yl)piperidin-1-yl)-2-(1-methyl-1H-1,2,4-triazol-5-yl)ethan-1-one]	710 nM
Cc1noc(CC(=O)N2CCC(c3nc(-c4ccc(F)c(F)c4)no3)CC2)n1 [Compound 47, 1-(4-(3-(3,4-difluorophenyl)-1,2,4-oxadiazol-5-yl)piperidin-1-yl)-2-(3-methyl-1,2,4-oxadiazol-5-yl)ethan-1-one]	1450 nM
Cc1nonc1CC(=O)N1CCC(n2ccc(-c3ccccc3)n2)CC1 [Compound 79, 2-(4-methyl-1,2,5-oxadiazol-3-yl)-1-(4-(3-phenyl-1H-pyrazol-1-yl)piperidin-1-yl)ethan-1-one]	> 10000 nM
Cn1ncnc1CC(=O)N1CCC(c2nc(-c3ccc(Cl)cc3Cl)no2)CC1 [Compound 163, 1-(4-(3-(2,4-dichlorophenyl)-1,2,4-oxadiazol-5-yl)piperidin-1-yl)-2-(1-methyl-1H-1,2,4-triazol-5-yl)ethan-1-one]	200 nM
Cn1ncnc1CC(=O)N1CCC(c2nc(-c3ccc(Cl)cc3)no2)CC1 [Compound 167, 1-(4-(3-(4-chlorophenyl)-1,2,4-oxadiazol-5-yl)piperidin-1-yl)-2-(1-methyl-1H-1,2,4-triazol-5-yl)ethan-1-one]	221 nM
Cc1nonc1CC(=O)N1CCC(c2nc(C3CCC(F)(F)C3)no2)CC1 (centres unmarked) [Compound 109, 1-(4-(3-(3,3-difluorocyclopentyl)-1,2,4-oxadiazol-5-yl)piperidin-1-yl)-2-(4-methyl-1,2,5-oxadiazol-3-yl)ethan-1-one]	3250 nM
Cn1ncnc1CC(=O)N1CCC(c2nc([C@@H]3CC[C@](C)(F)C3)no2)CC1 [Compound 159, 1-(4-(3-((1R,3S)-3-fluoro-3-methylcyclopentyl)-1,2,4-oxadiazol-5-yl)piperidin-1-yl)-2-(1-methyl-1H-1,2,4-triazol-5-yl)ethan-1-one]	> 10000 nM
Cc1nocc1CC(=O)N1CCC(c2nc(-c3ccc(F)cc3)no2)CC1 [Compound 58, 1-(4-(3-(4-fluorophenyl)-1,2,4-oxadiazol-5-yl)piperidin-1-yl)-2-(3-methylisoxazol-4-yl)ethan-1-one]	2150 nM
Cc1noc(CC(=O)N2CCC(c3nc(-c4ccc(Cl)cc4Cl)no3)CC2)n1 [Compound 32, 1-(4-(3-(2,4-dichlorophenyl)-1,2,4-oxadiazol-5-yl)piperidin-1-yl)-2-(3-methyl-1,2,4-oxadiazol-5-yl)ethan-1-one]	718 nM
Cn1ncnc1CC(=O)N1CCC(n2nnc(-c3ccc(C(F)(F)F)cc3)n2)CC1 [Compound 171, 2-(1-methyl-1H-1,2,4-triazol-5-yl)-1-(4-(5-(4-(trifluoromethyl)phenyl)-2H-tetrazol-2-yl)piperidin-1-yl)ethan-1-one]	963 nM
Cc1nonc1CC(=O)N1CC2CCC(C1)C2c1nc(-c2ccc(F)cc2)no1 (centres unmarked) [Compound 249, 1-(8-(3-(4-fluorophenyl)-1,2,4-oxadiazol-5-yl)-3-azabicyclo[3.2.1]octan-3-yl)-2-(4-methyl-1,2,5-oxadiazol-3-yl)ethan-1-one]	1290 nM
Cn1ncnc1CC(=O)N1CC2CC1CC2c1nc(-c2ccc(Cl)c(F)c2)no1 (centres unmarked) [Compound 201, 1-(5-(3-(4-chloro-3-fluorophenyl)-1,2,4-oxadiazol-5-yl)-2-azabicyclo[2.2.1]heptan-2-yl)-2-(1-methyl-1H-1,2,4-triazol-5-yl)ethan-1-one]	200 nM
Cc1nonc1CC(=O)N1CCC(c2nc(-c3ccc(Cl)cc3)no2)CC1 [Compound 98, 1-(4-(3-(4-chlorophenyl)-1,2,4-oxadiazol-5-yl)piperidin-1-yl)-2-(4-methyl-1,2,5-oxadiazol-3-yl)ethan-1-one]	114 nM
Cc1nonc1CC(=O)N1CCC2(CCC2c2nc(-c3ccc(F)cc3)no2)CC1 (centres unmarked) [Compound 241, 1-(1-(3-(4-fluorophenyl)-1,2,4-oxadiazol-5-yl)-7-azaspiro[3.5]nonan-7-yl)-2-(4-methyl-1,2,5-oxadiazol-3-yl)ethan-1-one]	> 10000 nM
Cc1noc(CC(=O)N2CCC(O)(c3nc(C4CCCCC4)no3)CC2)n1 [Compound 25, 1-(4-(3-cyclohexyl-1,2,4-oxadiazol-5-yl)-4-hydroxypiperidin-1-yl)-2-(3-methyl-1,2,4-oxadiazol-5-yl)ethan-1-one]	> 10000 nM
Cn1ncnc1CC(=O)N1CCC(c2nc([C@@H]3CC[C@@](C)(F)C3)no2)CC1 [Compound 158, 1-(4-(3-((1R,3R)-3-fluoro-3-methylcyclopentyl)-1,2,4-oxadiazol-5-yl)piperidin-1-yl)-2-(1-methyl-1H-1,2,4-triazol-5-yl)ethan-1-one]	> 10000 nM
Cc1nonc1CC(=O)N1CCC(c2nc(Cc3ccc(F)cc3)no2)CC1 [Compound 142, 1-(4-(3-(4-fluorobenzyl)-1,2,4-oxadiazol-5-yl)piperidin-1-yl)-2-(4-methyl-1,2,5-oxadiazol-3-yl)ethan-1-one]	6640 nM
Cc1nonc1CC(=O)N1CCC(n2nnc(C3CCCC3)n2)CC1 [Compound 71, 1-(4-(5-cyclopentyl-2H-tetrazol-2-yl)piperidin-1-yl)-2-(4-methyl-1,2,5-oxadiazol-3-yl)ethan-1-one]	> 25000 nM
CC(C)c1noc(CC(=O)N2CCC(c3nc(-c4ccc(Cl)c(Cl)c4)no3)CC2)n1 [Compound 5, 1-(4-(3-(3,4-dichlorophenyl)-1,2,4-oxadiazol-5-yl)piperidin-1-yl)-2-(3-isopropyl-1,2,4-oxadiazol-5-yl)ethan-1-one]	1430 nM
Cc1nonc1CC(=O)N1CC2CC1CC2c1nc(-c2ccc(Cl)c(Cl)c2)no1 (centres unmarked) [Compound 195, 1-(5-(3-(3,4-dichlorophenyl)-1,2,4-oxadiazol-5-yl)-2-azabicyclo[2.2.1]heptan-2-yl)-2-(4-methyl-1,2,5-oxadiazol-3-yl)ethan-1-one]	94 nM
Cn1ncnc1CC(=O)N1CCC(c2nc(C3CCC(C)(F)CC3)no2)CC1 (centres unmarked) [Compound 160, 1-(4-(3-(4-fluoro-4-methylcyclohexyl)-1,2,4-oxadiazol-5-yl)piperidin-1-yl)-2-(1-methyl-1H-1,2,4-triazol-5-yl)ethan-1-one]	> 10000 nM
Cc1nonc1NC(=O)N1CCC(c2nc(-c3ccc(F)cc3)no2)CC1 [Compound 152, 4-(3-(4-fluorophenyl)-1,2,4-oxadiazol-5-yl)-N-(4-methyl-1,2,5-oxadiazol-3-yl)piperidine-1-carboxamide]	653 nM

Reference: patent publication US20260048047A1, “SMALL-MOLECULE ACTIVATORS OF MYCOBACTERIUM TUBERCULOSIS ADENYLYL CYCLASE” (priority 2022, published 2026)
